From patent US9726659B2, “CMPF as a biomarker for diabetes and associated methods” (The Governing Council of the University of Toronto, priority 2012, dated 2017)

Key:
albumin = albumin (Homo sapiens, UniProt P02768); settings: cited from earlier work
islets = test: GSIS with CMPF conjugated to fatty acid-free BSA; type: cell-based; settings: conjugated for 6 hours prior to addition of islets, N=3
Method: CMPF was conjugated to fatty acid free BSA for 6 hours prior to addition of islets for green and blue bars. The same protocol used for the conjugation of oleate was used. Black and white bars indicate addition of CMPF with 0.1% BSA in the media without pre-conjugation. N=3. *P<0.05.

[1] = system: islets from injected mice; test: Islets isolated from IP injected mice after the OGTT (ex vivo); type: in vivo
Method: (§1) CD1 mice were injected IP with either vehicle control (black) or CMPF (white). Over the 7-day course of IP injections, mice were monitored for body weight (A), and random-fed blood glucose (B) and plasma insulin (C). […] The lower body weights on day 8 are following a 14-hour fast, immediately prior to the OGTTs. Following 7 consecutive days of CMPF injections, mice were fasted for 14 hrs and OGTTs were performed. […] (n=8 per group, p<0.05).
To assess the effect of in vivo administration of CMPF directly on the beta cells, the islets were isolated from the 3-day and 7-day IP injected mice immediately following the OGTT. […] The reduced total insulin content corresponded to lower insulin mRNA levels (FIG. 7D, 3-day injected used as representative), consistent with the in vitro studies described herein.

murine islets = test: qPCR mRNA expression in treated murine islets; type: cell-based; settings: 24 hrs
Method: First, the effect of CMPF treatment on insulin biosynthesis was investigated to determine if insulin is available to be released upon stimulation. MIN6, murine and human islets were treated with vehicle control, 20 uM and 200 uM CMPF for 4 hrs (MIN6) or 24 hrs (islets), and total insulin content measured. […] To determine the mechanism through which CMPF is reducing total insulin content, quantitative PCR (qPCR) was performed on RNA that was isolated from murine islets treated with either vehicle control or 200 uM CMPF for 24 hrs. […] Total RNA was extracted from 24 hour vehicle or CMPF-treated islets using the Qiagen RNeasy Plus mini kit (Hilden, Germany). Microarray analysis was performed as previously described (Basford et al. 2012) using the Affymetrix Mouse 430 2.0 Gene Chip at the University Health Network microarray center (Toronto, Canada). Significant changes were defined as P<0.05. Microarray data will be available on the NCBI GEO database at the time of publication. Human islet microarray data can be found at GE040709. Reverse transcription from total RNA and quantitative real time PCR (qPCR) analysis was performed as previously described (Basford et al. 2012). Primers were designed using Primer3 software (NCBI). Data were normalized to beta actin mRNA.

CD1 mice = test: IP injection for 3 or 7 days: monitoring, fasting values, OGTT, ipITT; type: in vivo; settings: for fasting blood glucose / fasting plasma insulin / glucose tolerance (OGTT) / insulin secretion during OGTT: 14 hr fast
Method: CD1 mice were injected IP with either vehicle control (black) or CMPF (white). A) Plasma samples were taken at 10, 30, 60, 120 and 360 minutes post-IP injection and assayed for CMPF. […] Over the 3-day course of IP injections, mice were monitored for body weight (B), random-fed blood glucose (C) and plasma insulin (C). There was no difference in any of these parameters. Following 3 consecutive days of CMPF injections, mice were fasted for 14 hrs and OGTTs were performed.
as §1
To investigate the effect of CMPF on glucose homeostasis, (FIG. 8C). […] Therefore, elevated plasma CMPF concentrations cause impaired beta cell function and prevent GSIS in vivo, resulting in glucose intolerance. Chronically elevated CMPF levels may also induce insulin resistance. […]

MIN6 = test: Total insulin content in MIN6 cells; type: cell-based, murine; settings: 200 uM, 4 hrs, vs vehicle
Method: In the absence of apoptosis and necrosis, CMPF must be impairing GSIS by causing beta cell dysfunction. First, the effect of CMPF treatment on insulin biosynthesis was investigated to determine if insulin is available to be released upon stimulation. MIN6, murine and human islets were treated with vehicle control, 20 uM and 200 uM CMPF for 4 hrs (MIN6) or 24 hrs (islets), and total insulin content measured. […] Lower total insulin content may be due to either defective insulin processing from proinsulin to mature insulin, or insufficient insulin transcription. To determine the mechanism through which CMPF is reducing total insulin content, quantitative PCR (qPCR) was performed on RNA that was isolated from murine islets treated with either vehicle control or 200 uM CMPF for 24 hrs.

mice = test: Hyperinsulinemic euglycemic clamps after 7 days of IP injections; type: in vivo; settings: 7 days IP
Method: A) Schematic illustrating injection and surgical timeline. B) Glucose infusion rate (C) glucose appearance and (D) disappearance rates and (E) glycolytic rate in 7 day CMPF-injected mice compared to vehicle controls (N=4/group). […] Values mean±SEM.
Hyperinsulinemic euglycemic clamps were performed as previously described (Liu et al., 2012) following 7 days of IP injections with either CMPF or vehicle. Internal and external cannulation was performed on day 3 of the injection protocol.
As shown in Example 1, elevated plasma CMPF results in glucose intolerance and impaired insulin secretion. […] To more thoroughly examine integrated glucose homeostasis, hyperinsulinemic euglycemic clamps were performed.

[2] = after seven days of IP injection
[3] = after three days of IP injection

Chain of albumin (P02768 25-609, species assumed): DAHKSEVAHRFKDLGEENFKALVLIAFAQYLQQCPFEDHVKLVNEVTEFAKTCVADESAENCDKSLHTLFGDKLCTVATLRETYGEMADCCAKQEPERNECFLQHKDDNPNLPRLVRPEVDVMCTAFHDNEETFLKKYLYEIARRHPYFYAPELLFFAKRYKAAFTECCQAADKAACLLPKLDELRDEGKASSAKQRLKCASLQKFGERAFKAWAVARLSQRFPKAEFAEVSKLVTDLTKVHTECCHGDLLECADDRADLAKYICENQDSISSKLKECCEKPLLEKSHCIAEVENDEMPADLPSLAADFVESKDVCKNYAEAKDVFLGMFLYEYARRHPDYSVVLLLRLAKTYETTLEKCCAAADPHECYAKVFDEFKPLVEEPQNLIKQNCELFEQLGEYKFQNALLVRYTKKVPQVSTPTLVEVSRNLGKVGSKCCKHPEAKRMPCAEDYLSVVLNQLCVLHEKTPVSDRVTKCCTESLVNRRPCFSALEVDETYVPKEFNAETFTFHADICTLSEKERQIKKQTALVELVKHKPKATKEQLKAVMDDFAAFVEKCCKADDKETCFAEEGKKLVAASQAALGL

With `CCCc1oc(CCC(=O)O)c(C(=O)O)c1C` [CMPF, 3-carboxy-4-methyl-5-propyl-2-furanpropanoic acid] as the molecule, how does the albumin binding (albumin) read?
The albumin binding was “highly albumin-bound”.

And the “effect of conjugation to fatty acid-free BSA on CMPF-impaired GSIS” value (islets)?
Its value is “no effect”.

And the “GSIS of isolated islets” value ([1]; 3 days IP)?
Its value is “impaired GSIS”.

And the “insulin mRNA of isolated islets” value ([1]; 3 days IP)?
The value was “decreased insulin mRNA”.

What about the islet size ([1]; 3 days IP) of the same molecule?
The islet size was “no significant difference”.

What about the “total insulin content of isolated islets” value ([1]; 3 days IP) of the same molecule?
The value was “decreased total insulin content”.

What about the “insulin secretion of isolated islets under high glucose” value ([1]; 7 days IP) of the same molecule?
Its value is “significantly reduced insulin secretion”.

What about the “insulin secretion of isolated islets under low glucose” value ([1]; 7 days IP) of the same molecule?
The value was “significantly increased insulin secretion”.

And the “CpE mRNA” value (murine islets; 200 uM)?
Its value is “significantly lower levels”.

What about the GCK expression (murine islets; 200 uM) of the same molecule?
Its GCK expression is “trend toward lower expression”.

What about the GLUT2 expression (murine islets; 200 uM) of the same molecule?
Its GLUT2 expression is “significantly reduced”.

What about the “HNF4a mRNA” value (murine islets; 200 uM) of the same molecule?
The value was “significant reduction”.

What about the “MAFA mRNA” value (murine islets; 200 uM) of the same molecule?
Its value is “significant reduction”.

And the “PCSK1 mRNA” value (murine islets; 200 uM)?
The value was “trending lower levels”.

And the “PCSK2 mRNA” value (murine islets; 200 uM)?
Its value is “trending lower levels”.

And the “PDX1 mRNA” value (murine islets; 200 uM)?
Its value is “significant reduction”.

What about the “insulin mRNA” value (murine islets; 200 uM) of the same molecule?
The value was “significant reduction”.

What about the Ucp2 expression (murine islets) of the same molecule?
Its Ucp2 expression is “Increased antioxidant gene expression”.

And the “catalase (Cat) expression” value (murine islets)?
Its value is “Increased antioxidant gene expression”.

And the body weight (CD1 mice; 3-day course of IP injections)?
The body weight was “no difference”.

And the random-fed blood glucose (CD1 mice; 3-day course of IP injections)?
Its random-fed blood glucose is “no difference”.

What about the random-fed plasma insulin (CD1 mice; 3-day course of IP injections) of the same molecule?
Its random-fed plasma insulin is “no difference”.

And the body weight (CD1 mice; 7-day course of IP injections)?
Its body weight is “no difference”.

What about the random-fed blood glucose (CD1 mice; 7-day course of IP injections) of the same molecule?
Its random-fed blood glucose is “no difference”.

And the fasting blood glucose (CD1 mice; [2])?
The fasting blood glucose was “significantly higher”.

What about the fasting plasma insulin (CD1 mice; [2]) of the same molecule?
Its fasting plasma insulin is “significantly higher”.

And the fasting blood glucose (CD1 mice; [3])?
The fasting blood glucose was “significantly higher”.

What about the fasting plasma insulin (CD1 mice; [3]) of the same molecule?
The fasting plasma insulin was “significantly lower”.

And the “glucose tolerance (OGTT)” value (CD1 mice; after 3 days of IP injection)?
The value was “impaired glucose tolerance”.

What about the “insulin secretion during OGTT” value (CD1 mice; after 3 days of IP injection) of the same molecule?
Its value is “significantly impaired insulin secretion”.

And the “glucose tolerance (OGTT)” value (CD1 mice; after 7 days of IP injection)?
Its value is “significantly impaired glucose tolerance”.

And the “insulin secretion during OGTT” value (CD1 mice; after 7 days of IP injection)?
The value was “significantly impaired insulin secretion”.

And the random-fed plasma insulin (CD1 mice; days 4-7 of injections)?
Its random-fed plasma insulin is “significantly elevated”.

And the fed-state glucagon (CD1 mice; seven-day treatment)?
Its fed-state glucagon is “hyperglucagonemia”.

And the “insulin sensitivity by insulin-tolerance testing (ipITT)” value (CD1 mice; seven-day treatment, vs vehicle)?
Its value is “no significant difference”.

What about the total insulin content (MIN6) of the same molecule?
The total insulin content was “significantly reduced”.

What about the “glucose appearance, basal” value (mice) of the same molecule?
The value was “significantly lower”.

What about the “glycolytic rate, response to insulin (post clamp/basal)” value (mice) of the same molecule?
The value was “no difference”.

And the insulin appearance post-clamp (mice)?
Its insulin appearance post-clamp is “significantly reduced”.

And the glucose infusion rate (mice; N=4/group)?
Its glucose infusion rate is “significant reduction”.
